Assay results reported in ChEMBL document CHEMBL3885881, “DrugMatrix”.

Species on record: Rattus norvegicus
Experiment: DrugMatrix - Regimen: Daily Repeat
Format: toxicity, organism-based, Sprague-Dawley
Set-up: regimen Daily Repeat, gender Male, age 6-8 weeks
Conditions: in vivo, po, route oral GAVAGE, vehicle 100 % WATER; for ABSOLUTE BASOPHIL / ABSOLUTE EOSINOPHIL / ABSOLUTE LYMPHOCYTE / ABSOLUTE MONOCYTE / ABSOLUTE SEGMENTED NEUTROPHIL / BASOPHIL / EOSINOPHIL / ERYTHROCYTE COUNT / HEMATOCRIT / HEMOGLOBIN / LEUKOCYTE COUNT / LYMPHOCYTE / MEAN CORPUSCULAR HEMOGLOBIN / MEAN CORPUSCULAR HEMOGLOBIN CONCENTRATION / MEAN CORPUSCULAR VOLUME / MONOCYTE / NEUTROPHIL / NUCLEATED RED BLOOD CELLS / PLATELET COUNT: tissue Blood; for ALANINE AMINOTRANSFERASE / ALBUMIN / ALKALINE PHOSPHATASE / ASPARTATE AMINOTRANSFERASE / BLOOD UREA NITROGEN / CARBON DIOXIDE / CHLORIDE / CHOLESTEROL / CREATINE PHOSPHOKINASE / CREATININE / GLUCOSE / LACTATE DEHYDROGENASE / LIPASE / PHOSPHORUS / POTASSIUM / SODIUM / TOTAL BILIRUBIN / TOTAL PROTEIN / URIC ACID: tissue Plasma
[1] = 0 mg/kg, 72 h, dose level Control, time 3 day
[2] = 0 mg/kg, 120 h, dose level Control, time 5 day
[3] = 28 mg/kg, 72 h, dose level Low, time 3 day

Cn1cc[nH]c1=S [METHIMAZOLE]
ABSOLUTE BASOPHIL [1]: 0 CELLS/uL
ABSOLUTE EOSINOPHIL [1]: 0 CELLS/uL
ABSOLUTE LYMPHOCYTE [1]: 8482.5 CELLS/uL
ABSOLUTE MONOCYTE [1]: 63.83 CELLS/uL
ABSOLUTE SEGMENTED NEUTROPHIL [1]: 887 CELLS/uL
BASOPHIL [1]: 0%
EOSINOPHIL [1]: 0%
ERYTHROCYTE COUNT [1]: 5.49 x10E6/uL
HEMATOCRIT [1]: 34.5%
HEMOGLOBIN [1]: 13.33 G/DL
LEUKOCYTE COUNT [1]: 9.43 x10E3/uL
LYMPHOCYTE [1]: 90.17%
MEAN CORPUSCULAR HEMOGLOBIN [1]: 24.3 pg
MEAN CORPUSCULAR HEMOGLOBIN CONCENTRATION [1]: 38.63 G/DL
MEAN CORPUSCULAR VOLUME [1]: 62.88 fL
MONOCYTE [1]: 0.67%
NEUTROPHIL [1]: 9.17%
NUCLEATED RED BLOOD CELLS [1]: 0.67 /100WBC
PLATELET COUNT [1]: 1022.83 x10E3/uL
ALANINE AMINOTRANSFERASE [1]: 50.5 u/L
ALBUMIN [1]: 4.08 G/DL
ALKALINE PHOSPHATASE [1]: 368.33 u/L
ASPARTATE AMINOTRANSFERASE [1]: 87.5 u/L
BLOOD UREA NITROGEN [1]: 12.83 mg/dL
CARBON DIOXIDE [1]: 32.83 mmol/L
CHLORIDE [1]: 99.67 MEQ/L
CHOLESTEROL [1]: 79.67 mg/dL
CREATINE PHOSPHOKINASE [1]: 585 u/L
CREATININE [1]: 0.22 mg/dL
GLUCOSE [1]: 135.67 mg/dL
LACTATE DEHYDROGENASE [1]: 171 u/L
LIPASE [1]: 9.5 u/L
PHOSPHORUS [1]: 11.18 mg/dL
POTASSIUM [1]: 6.25 MEQ/L
SODIUM [1]: 144.87 MEQ/L
TOTAL BILIRUBIN [1]: 0.2 mg/dL
TOTAL PROTEIN [1]: 6.08 G/DL
URIC ACID [1]: 0.65 mg/dL
ABSOLUTE BASOPHIL [2]: 0 CELLS/uL
ABSOLUTE EOSINOPHIL [2]: 14.5 CELLS/uL
ABSOLUTE LYMPHOCYTE [2]: 7596.17 CELLS/uL
ABSOLUTE MONOCYTE [2]: 69.67 CELLS/uL
ABSOLUTE SEGMENTED NEUTROPHIL [2]: 503 CELLS/uL
BASOPHIL [2]: 0%
EOSINOPHIL [2]: 0.17%
ERYTHROCYTE COUNT [2]: 5.49 x10E6/uL
HEMATOCRIT [2]: 34.72%
HEMOGLOBIN [2]: 13.47 G/DL
LEUKOCYTE COUNT [2]: 8.18 x10E3/uL
LYMPHOCYTE [2]: 92.17%
MEAN CORPUSCULAR HEMOGLOBIN [2]: 24.57 pg
MEAN CORPUSCULAR HEMOGLOBIN CONCENTRATION [2]: 38.82 G/DL
MEAN CORPUSCULAR VOLUME [2]: 63.3 fL
MONOCYTE [2]: 1%
NEUTROPHIL [2]: 6.67%
NUCLEATED RED BLOOD CELLS [2]: 0 /100WBC
PLATELET COUNT [2]: 1141 x10E3/uL
ALANINE AMINOTRANSFERASE [2]: 48.33 u/L
ALBUMIN [2]: 4.07 G/DL
ALKALINE PHOSPHATASE [2]: 395.67 u/L
ASPARTATE AMINOTRANSFERASE [2]: 85.67 u/L
BLOOD UREA NITROGEN [2]: 15.83 mg/dL
CARBON DIOXIDE [2]: 31.33 mmol/L
CHLORIDE [2]: 100.83 MEQ/L
CHOLESTEROL [2]: 62.33 mg/dL
CREATINE PHOSPHOKINASE [2]: 248.33 u/L
CREATININE [2]: 0.2 mg/dL
GLUCOSE [2]: 135.67 mg/dL
LACTATE DEHYDROGENASE [2]: 141.33 u/L
LIPASE [2]: 9.5 u/L
PHOSPHORUS [2]: 10.73 mg/dL
POTASSIUM [2]: 6.07 MEQ/L
SODIUM [2]: 145.35 MEQ/L
TOTAL BILIRUBIN [2]: 0.22 mg/dL
TOTAL PROTEIN [2]: 6.12 G/DL
URIC ACID [2]: 0.63 mg/dL
ABSOLUTE BASOPHIL [3]: 0 CELLS/uL
ABSOLUTE EOSINOPHIL [3]: 0 CELLS/uL
ABSOLUTE LYMPHOCYTE [3]: 8790 CELLS/uL
ABSOLUTE MONOCYTE [3]: 67.33 CELLS/uL
ABSOLUTE SEGMENTED NEUTROPHIL [3]: 776 CELLS/uL
BASOPHIL [3]: 0%
EOSINOPHIL [3]: 0%
ERYTHROCYTE COUNT [3]: 5.45 x10E6/uL
HEMATOCRIT [3]: 33.93%
HEMOGLOBIN [3]: 13.23 G/DL
LEUKOCYTE COUNT [3]: 9.63 x10E3/uL
LYMPHOCYTE [3]: 91.33%
MEAN CORPUSCULAR HEMOGLOBIN [3]: 24.3 pg
MEAN CORPUSCULAR HEMOGLOBIN CONCENTRATION [3]: 39 G/DL
MEAN CORPUSCULAR VOLUME [3]: 62.37 fL
MONOCYTE [3]: 0.67%
NEUTROPHIL [3]: 8%
NUCLEATED RED BLOOD CELLS [3]: 0.33 /100WBC
PLATELET COUNT [3]: 926 x10E3/uL
ALANINE AMINOTRANSFERASE [3]: 53.33 u/L
ALBUMIN [3]: 4.17 G/DL
ALKALINE PHOSPHATASE [3]: 410.67 u/L
ASPARTATE AMINOTRANSFERASE [3]: 78 u/L
BLOOD UREA NITROGEN [3]: 11.33 mg/dL
CARBON DIOXIDE [3]: 33 mmol/L
CHLORIDE [3]: 98.67 MEQ/L
CHOLESTEROL [3]: 91.33 mg/dL
CREATINE PHOSPHOKINASE [3]: 269.33 u/L
CREATININE [3]: 0.34 mg/dL
GLUCOSE [3]: 123 mg/dL
LACTATE DEHYDROGENASE [3]: 147.67 u/L
LIPASE [3]: 11 u/L
PHOSPHORUS [3]: 10.97 mg/dL
POTASSIUM [3]: 6.8 MEQ/L
SODIUM [3]: 143.6 MEQ/L
TOTAL BILIRUBIN [3]: 0.23 mg/dL
TOTAL PROTEIN [3]: 6.13 G/DL
URIC ACID [3]: 0.8 mg/dL
